# Measurements taken from patent US20230000842A1, “METHODS OF TREATING CARTILAGE DISORDERS THROUGH INHIBITION OF CLK AND DYRK” (SAMUMED, LLC, priority 2019, published 2023).
# Columns and labels:
# [1] = target: CLK2 kinase (Homo sapiens, UniProt P49760); assay: CLK2 kinase activity assay (Z-lyte FRET); assay type: biochemical; details: Z-lyte Ser/Thr 6 peptide, 60 μM ATP, 1 h at room temperature;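 note: FRET read-out as coumarin to fluorescein emission ratio, unphosphorylated peptide as 0% and phosphorylated peptide as 100% controls, duplicate reactions, non-linear regression fit of dose-response curves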
# CLK2 kinase, sequence (P49760 whole entry): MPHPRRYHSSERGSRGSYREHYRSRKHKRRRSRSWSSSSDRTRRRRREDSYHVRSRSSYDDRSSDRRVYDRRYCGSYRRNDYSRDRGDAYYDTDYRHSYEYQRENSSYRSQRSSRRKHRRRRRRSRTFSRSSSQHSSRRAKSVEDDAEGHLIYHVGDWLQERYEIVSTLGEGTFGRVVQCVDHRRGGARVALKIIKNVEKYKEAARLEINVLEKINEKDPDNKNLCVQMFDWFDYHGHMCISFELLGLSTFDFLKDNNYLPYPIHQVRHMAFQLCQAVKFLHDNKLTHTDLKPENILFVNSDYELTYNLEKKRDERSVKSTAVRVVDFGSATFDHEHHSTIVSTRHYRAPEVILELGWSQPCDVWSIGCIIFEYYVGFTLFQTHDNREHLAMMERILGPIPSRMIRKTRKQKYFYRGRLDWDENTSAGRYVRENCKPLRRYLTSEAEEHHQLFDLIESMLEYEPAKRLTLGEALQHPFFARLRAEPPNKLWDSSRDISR
# [2] = target: CLK3 kinase (Homo sapiens, UniProt P49761); assay: CLK3 kinase activity assay (Z-lyte FRET); assay type: biochemical; details: Z-lyte Ser/Thr 18 peptide, 156 μM ATP, 1 h at room temperature;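 note: kinase activity read as coumarin/fluorescein emission ratio by FRET, unphosphorylated peptide as 0% and phosphorylated peptide as 100% control, values from non-linear regression of dose-response curves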
# CLK3 kinase, sequence (P49761 whole entry): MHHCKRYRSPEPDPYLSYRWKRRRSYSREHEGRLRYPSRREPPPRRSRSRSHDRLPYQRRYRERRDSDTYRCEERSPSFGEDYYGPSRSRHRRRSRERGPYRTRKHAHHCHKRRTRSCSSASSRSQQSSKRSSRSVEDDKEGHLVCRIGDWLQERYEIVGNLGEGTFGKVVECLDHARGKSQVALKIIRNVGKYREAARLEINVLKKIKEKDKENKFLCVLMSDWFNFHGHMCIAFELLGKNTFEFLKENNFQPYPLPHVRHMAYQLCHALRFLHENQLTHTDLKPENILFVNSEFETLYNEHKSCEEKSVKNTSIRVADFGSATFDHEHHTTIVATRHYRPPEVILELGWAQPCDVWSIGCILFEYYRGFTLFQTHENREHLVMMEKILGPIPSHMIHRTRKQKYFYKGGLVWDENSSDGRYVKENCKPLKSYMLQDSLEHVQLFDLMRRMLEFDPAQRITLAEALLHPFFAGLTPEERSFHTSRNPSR
# [3] = system: Wnt pathway activity (SW480 colon carcinoma cells stably expressing the Sp5-Luc reporter); assay: Wnt pathway activity screening assay (Sp5-Luc reporter gene assay); details: Homo sapiens, SW480, Table 4; SW480 cells stably expressing Sp5-Luc reporter, 10-point dose-response from 10 μM, 36 to 48 hours
# [4] = system: primary human mesenchymal stem cells (hMSCs); assay: Chondrogenesis screening using primary human mesenchymal stem cells; assay type: cell-based; details: Homo sapiens, Mesenchymal stem cells, hMSC chondrogenesis; for EC50: concentration required to induce 50% levels of chondrogenesis with TGF-β3 as positive control, read-out: Conc (nM) of 50% TGF-β3 activity; for Emax: maximum activity relative to TGF-β3 (10 ng/mL) positive control, read-out: Max. Activity as % TGF-β3 activity
# Procedure, shortened: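 Derived values are EC50 for 50% chondrogenesis, maximal activity and the dose giving it. These come from nodule area in passage 3–6 primary hMSCs, expressed as fold change over the mean of 3 same-plate DMSO wells, 2–3 replicates per concentration. TGF-β3 served as positive control.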
EC50 [1] [nM],EC50 [2] [nM],EC50 [3] [nM],EC50 [4] [nM],Structure (SMILES),Emax [4] [%]
20,2190,572,100,CCCCC(=O)Nc1cncc(-c2ccc3[nH]nc(-c4cc5c(N6CCCCC6)cccc5[nH]4)c3n2)c1 [compound 458],68.6
13,269,4050,30,CCCCC(=O)Nc1cncc(-c2ccc3[nH]nc(-c4cc5c(N6CCCCC6)nccc5[nH]4)c3n2)c1 [compound 459],54.5
8,231,3850,–,O=C(Nc1cncc(-c2cnc3[nH]nc(-c4cc5c(N6CCCCC6)nccc5[nH]4)c3c2)c1)C1CC1 [compound 460],42.5
19,342,4070,–,O=C(Nc1cncc(-c2cc3c(-c4cc5c(N6CCCCC6)nccc5[nH]4)n[nH]c3cn2)c1)C1CCC1 [compound 461],42.4
13,1280,3410,–,CC(C)Nc1cncc(-c2cnc3[nH]nc(-c4cc5c(N6CCCCC6)nccc5[nH]4)c3c2)c1 [compound 463],33.6
13,3660,575,10,CN(C)Cc1cncc(-c2ccc3[nH]nc(-c4cc5c(N6CCCCC6)cccc5[nH]4)c3c2)c1 [compound 464],205
2,293,4710,–,CN(C)Cc1cncc(-c2ccc3[nH]nc(-c4cc5c(N6CCCCC6)nccc5[nH]4)c3c2)c1 [compound 465],220
3,64,1840,–,c1ncc(-c2ccc3[nH]nc(-c4cc5c(N6CCCCC6)cncc5[nH]4)c3c2)cc1CN1CCCC1 [compound 466],24.7
12,279,750,30,FC1(F)CCN(Cc2cncc(-c3ccc4[nH]nc(-c5cc6c(N7CCCCC7)cccc6[nH]5)c4c3)c2)C1 [compound 467],160
5,166,5270,–,FC1(F)CCN(Cc2cncc(-c3ccc4[nH]nc(-c5cc6c(N7CCCCC7)ccnc6[nH]5)c4n3)c2)C1 [compound 468],37.6
6,470,4210,–,c1cc2[nH]c(-c3n[nH]c4ccc(-c5cncc(CN6CCCCC6)c5)cc34)cc2c(N2CCCCC2)n1 [compound 469],48.1
2,40,8250,–,CN1CCN(c2cncc3[nH]c(-c4n[nH]c5ccc(-c6cncc(N)c6)cc45)cc23)CC1 [compound 470],50.9
3,89,1170,–,CN1CCN(c2ccnc3[nH]c(-c4n[nH]c5ccc(-c6cncc(N)c6)cc45)cc23)CC1 [compound 471],50.2
10,1080,> 10000,–,CN1CCN(c2nccc3[nH]c(-c4n[nH]c5cnc(-c6cncc(N)c6)cc45)cc23)CC1 [compound 472],49.8
3,285,> 10000,30,CCC(=O)Nc1cncc(-c2cc3c(-c4cc5c(N6CCN(C)CC6)nccc5[nH]4)n[nH]c3cn2)c1 [compound 473],70
17,2040,700,–,CC(C)C(=O)Nc1cncc(-c2cc3c(-c4cc5c(N6CCN(C)CC6)cccc5[nH]4)n[nH]c3cn2)c1 [compound 474],36.4
11,569,7690,–,CC(C)C(=O)Nc1cncc(-c2ccc3[nH]nc(-c4cc5c(N6CCN(C)CC6)nccc5[nH]4)c3c2)c1 [compound 475],21
7,800,> 10000,30,CC(C)C(=O)Nc1cncc(-c2cnc3[nH]nc(-c4cc5c(N6CCN(C)CC6)nccc5[nH]4)c3c2)c1 [compound 476],61.6
3,204,3450,–,CC(C)CC(=O)Nc1cncc(-c2ccc3[nH]nc(-c4cc5c(N6CCN(C)CC6)ccnc5[nH]4)c3n2)c1 [compound 477],49.5
9,137,1880,10,CN1CCN(c2nccc3[nH]c(-c4n[nH]c5cnc(-c6cncc(NC(=O)C(C)(C)C)c6)cc45)cc23)CC1 [compound 478],88.2
4,145,3480,–,CN1CCN(c2cncc3[nH]c(-c4n[nH]c5ccc(-c6cncc(NC(=O)CC(C)(C)C)c6)cc45)cc23)CC1 [compound 479],30.8

# More lines, now with the values behind:
Structure (SMILES),EC50 [1] [nM],EC50 [2] [nM],EC50 [3] [nM],EC50 [4] [nM],Emax [4] [%]
O=C(Nc1cncc(-c2cnc3[nH]nc(-c4cc5cnccc5[nH]4)c3c2)c1)c1ccccc1 [compound 435],2,46,> 10000,30,69.9
O=C(Nc1cncc(-c2cc3c(-c4cc5cnccc5[nH]4)n[nH]c3cn2)c1)c1ccccc1 [compound 437],2,62,580,10,152
CCNCc1cncc(-c2ccc3[nH]nc(-c4cc5ccccc5[nH]4)c3c2)c1 [compound 438],4,269,395,10,532
CCNCc1cncc(-c2ccc3[nH]nc(-c4cc5cnccc5[nH]4)c3c2)c1 [compound 439],2,49,1040,–,317
CCNCc1cncc(-c2ccc3[nH]nc(-c4cc5cccnc5[nH]4)c3n2)c1 [compound 440],3,562,3760,10,79.9
CN(C)c1cncc(-c2cc3c(-c4cc5cnccc5[nH]4)n[nH]c3cn2)c1 [compound 441],5,538,3060,300,101
CN(C)Cc1cncc(-c2ccc3[nH]nc(-c4cc5cnccc5[nH]4)c3n2)c1 [compound 442],3,101,1140,30,119
CN(C)Cc1cncc(-c2ccc3[nH]nc(-c4cc5cccnc5[nH]4)c3n2)c1 [compound 443],7,566,> 10000,–,37
c1ccc2[nH]c(-c3n[nH]c4ncc(-c5cncc(CN6CCCC6)c5)cc34)cc2c1 [compound 444],9,362,1410,10,97.6
FC1(F)CCN(Cc2cncc(-c3cc4c(-c5cc6cccnc6[nH]5)n[nH]c4cn3)c2)C1 [compound 445],5,203,1350,–,45.3
FC1(F)CCN(Cc2cncc(-c3ccc4[nH]nc(-c5cc6cnccc6[nH]5)c4n3)c2)C1 [compound 446],1,23,45,300,134
FC1(F)CCN(Cc2cncc(-c3ccc4[nH]nc(-c5cc6cccnc6[nH]5)c4n3)c2)C1 [compound 447],2,37,104,100,134
c1cc2[nH]c(-c3n[nH]c4ccc(-c5cncc(CN6CCCCC6)c5)cc34)cc2cn1 [compound 448],3,28,685,–,122
c1cnc2[nH]c(-c3n[nH]c4ccc(-c5cncc(CN6CCCCC6)c5)cc34)cc2c1 [compound 450],3,85,1670,–,50.8
c1cc2[nH]c(-c3n[nH]c4ncc(-c5cncc(CN6CCCCC6)c5)cc34)cc2cn1 [compound 451],5,53,1540,–,39.7
c1cc2cc(-c3n[nH]c4ccc(-c5cncc(OCCN6CCCC6)c5)cc34)[nH]c2cn1 [compound 452],2,68,1850,–,44.6
c1cnc2[nH]c(-c3n[nH]c4ccc(-c5cncc(OCCN6CCCC6)c5)cc34)cc2c1 [compound 453],2,246,3300,–,42.7
Nc1cncc(-c2ccc3[nH]nc(-c4cc5c(N6CCCCC6)ccnc5[nH]4)c3c2)c1 [compound 455],5,110,604,–,130
Nc1cncc(-c2cc3c(-c4cc5c(N6CCCCC6)cncc5[nH]4)n[nH]c3cn2)c1 [compound 456],2,94,2960,30,93.5
CC(=O)Nc1cncc(-c2ccc3[nH]nc(-c4cc5c(N6CCCCC6)nccc5[nH]4)c3c2)c1 [compound 457],1,52,445,10,244
